Measured values taken from publication PMC4526861, “Inhibition of protein kinase C by isojacareubin suppresses hepatocellular carcinoma metastasis and induces apoptosis in vitro and in vivo” (Scientific Reports, 2015).

How the values were obtained:
HepG2 cells [1] = assay: Cell proliferation assay (CCK-8), HepG2; assay type: cell-based, human
Description: (§1) The human HCC cell lines QGY-7703, SMMC-7721 and HepG2 and the liver cell line QSG-7701 were supplied by the Cell Resource Center, Institute of Life Sciences, Chinese Academy of Medical Science. QGY-7703, SMMC-7721 and QSG-7701 cells were cultured in 1640 medium (Gibco), and HepG2 cells were cultured in DMEM medium (Gibco) at 37 °C in moist air supplemented with 5% CO2. All media were supplemented with 10% fetal bovine serum (FBS) and 100 Units/mL of penicillin/streptomycin.
(§2) The cell viability assay was performed as previously reported using a Cell Counting Kit-8 (CCK-8; Dojindo, Kumamoto, Japan)[33][34]. The relative cell viability was presented as % inhibition and calculated using the following formula: […]

SMMC-7721 cells = assay: Cell proliferation assay (CCK-8), SMMC-7721; assay type: cell-based, human; settings: mean ± SD, at least three independent experiments
Description: as §1, §2

QSG-7701 hepatocytes = assay: Cell proliferation assay (CCK-8), QSG-7701 hepatocytes; assay type: cell-based, human; settings: nonmalignant hepatocytes; mean ± SD
Description: as §1, §2

HepG2 cells [2] = assay: Wound healing (migration) assay; assay type: cell-based, human; settings: 10 μM, 24 h
Description: (§3) Cell migration and invasion potencies were studied using wound healing and Matrigel invasion assays. The wound healing assay was performed by scratching the cell surface with a 10 μL pipette tip. Then, the cells were treated with compound 7 and ISJ (10 μM) and incubated for 24 h before being photographed under a microscope (DMI3000 B, Leica). Wound closure was evaluated using ImageJ software. Invasion through a Matrigel-coated filter was measured in transwell chambers (Corning Costa) as described previously, with minor modifications. Briefly, HepG2 Cells (2 × 10^5/well) were suspended in serum-free medium and added to the upper chamber of the Matrigel plate. FBS (10%) was used as the chemoattractant in the lower chamber. After incubation for 24 h, the non-invading cells were removed from the upper surface of the insert membrane with a cotton swab. The invading cells were fixed with methanol and stained with Giemsa (Sigma). Cells in five randomly selected fields were photographed, and the numbers of cells that crossed the membrane were counted.

HepG2 cells [3] = assay: Matrigel invasion assay; assay type: cell-based, human; settings: 10 μM, 24 h
Description: as §3

PKCα = target: T1, PKCα (Homo sapiens, UniProt P17252); assay: Cell-based pull-down assay, PKCα; assay type: binding; settings: HepG2 lysates
T1 construct: Endogenous cPKC (PKCα) and nPKC (PKCδ, PKCε and PKCμ) in HepG2 lysates were pulled down; endogenous in cells; host or cells: HepG2
Description: (§4) To identify whether ISJ and compound 7 target PKC in cells, we performed pull-down experiments using ISJ- and compound 7-coupled Sepharose beads with HepG2 cell lysates. Endogenous cPKC (PKCα) and nPKC (PKCδ, PKCε and PKCμ) in HepG2 lysates were pulled down by ISJ-coupled CNBr-activated Sepharose 4B beads (Fig. 5a).
(§5) The control beads were prepared by incubating the beads with DMSO. Proteins (500 μg) from lysed HepG2 cells were mixed with either the control beads, compound 7-coupled beads, or ISJ-coupled beads (100 μL) in reaction buffer [50 mM Tris (pH 7.5), 5 mM EDTA, 150 mM NaCl, 1 mM DTT, 0.01% NP-40, 2 μg/mL BSA, 1 mM PMSF, 1% protease inhibitor mixture]. After incubation with gentle rocking overnight at 4 °C, the beads were washed 5 times with washing buffer [50 mM Tris (pH 7.5), 5 mM EDTA, 150 mM NaCl, 1 mM DTT, 0.01% NP-40, 1 mM PMSF], and binding was visualized by western blotting.

PKCδ = target: T2, PKCδ (Homo sapiens, UniProt Q05655); assay: Cell-based pull-down assay, PKCδ; assay type: binding; settings: HepG2 lysates
T2 construct: Endogenous cPKC (PKCα) and nPKC (PKCδ, PKCε and PKCμ) in HepG2 lysates were pulled down; endogenous in cells; host or cells: HepG2
T2 sequence (Q05655 whole entry): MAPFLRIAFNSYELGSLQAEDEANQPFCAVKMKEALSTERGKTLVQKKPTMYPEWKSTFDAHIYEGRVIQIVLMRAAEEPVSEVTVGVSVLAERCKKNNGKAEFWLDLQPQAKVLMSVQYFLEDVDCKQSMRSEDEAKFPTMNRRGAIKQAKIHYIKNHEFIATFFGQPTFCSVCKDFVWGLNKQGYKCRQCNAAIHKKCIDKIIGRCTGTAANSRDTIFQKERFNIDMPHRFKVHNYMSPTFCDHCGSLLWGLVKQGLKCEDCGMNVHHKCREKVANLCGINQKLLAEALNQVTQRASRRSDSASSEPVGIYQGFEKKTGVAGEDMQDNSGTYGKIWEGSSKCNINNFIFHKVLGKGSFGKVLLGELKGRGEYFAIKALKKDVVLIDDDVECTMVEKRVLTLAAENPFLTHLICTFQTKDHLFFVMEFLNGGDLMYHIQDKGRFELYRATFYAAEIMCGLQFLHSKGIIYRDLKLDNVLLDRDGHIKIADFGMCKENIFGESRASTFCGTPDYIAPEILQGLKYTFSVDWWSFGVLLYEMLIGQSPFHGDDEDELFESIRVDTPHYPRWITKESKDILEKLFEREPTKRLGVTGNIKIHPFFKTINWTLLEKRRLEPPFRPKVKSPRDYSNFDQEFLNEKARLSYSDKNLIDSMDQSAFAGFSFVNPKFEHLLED
Description: as §4, §5

[4] = tested on: phosphorylated c-Raf, MEK1/2 and ERK1/2; assay: Western blot of MAPK phosphorylation, HepG2; assay type: cell-based, human; settings: HepG2, 24 h
Description: Additional PKC targeting effects involved in the early response of major MAPK phosphorylation and the late response of HCC cell invasion and apoptosis were investigated. After 24 h of treatment with ISJ at the indicated concentrations, the total protein lysates from HCC cells were analyzed (Fig. 6). ISJ inhibited the phosphorylated, activated forms of c-Raf, MEK1/2 and ERK1/2 in the MAPK signaling pathway in both HepG2 and QGY-7703 cells (Fig. 6a). […] In contrast, E-cadherin expression was elevated, specifically at the highest concentration of ISJ (20 μM) (Fig. 6b). In addition, we analyzed several representative apoptotic proteins, including cleaved PARP (c-PARP), p53 and p21. […] These findings support our hypothesis that ISJ restrains HCC cell metastasis and induces HCC cell apoptosis by specifically inhibiting PKC.
The total membrane and cytosolic proteins were extracted using a Membrane and Cytosol Protein Extraction Kit (Beyotime). Extracted proteins from cells or animal tissues were separated by SDS-PAGE and transferred to polyvinylidene difluoride (PVDF) membranes (Bio-Rad). The PVDF membranes were blocked with 5% nonfat milk and incubated with primary antibodies overnight, followed by incubation with a donkey anti-rabbit or anti-mouse secondary antibody (IRDye 800, LI-COR, Biosciences). […] The intensity was quantitative with Quantity One software (Bio-Rad). […]

[5] = Body weight in xenograft study; assay type: in vivo, BALB/c-nu nude mice; settings: 5 mg/kg, tail vein, two weeks
Description: HepG2 cells were harvested and resuspended in PBS. A total of 5 × 10^6 cells were subcutaneously injected into the right flank. Tumor volume was calculated using the following formula: V = (L × W^2)/2, where L is the length and W is the width of the tumor nodules measured with vernier calipers. Once the volume of the tumors reached 75–100 mm^3, the mice were randomly divided into three groups (n = 5). The mice were treated every other day for two weeks with tail vein injections of either vehicle (5% ethanol and 2.5% polyethylene glycol in saline), compound 7, or ISJ (5 mg/kg in the vehicle). Body weights were measured before each drug injection. After the 15th day, the mice were euthanized, and the tumors were isolated, weighed and photographed.

[6] = tested on: methicillin-resistant Staphylococcus aureus (MRSA); set-up: method as in PMID 22942699; settings: cited from earlier work

## Isojacareubin [ISJ]
HepG2 cells [1]; 50 μM
  Inhibitory Ratio (%) HepG2: 91.54%
HepG2 cells [1]; mean ± SD, at least three independent experiments
  IC50: 2450 ± 230 nM
SMMC-7721 cells
  IC50: 1630 ± 50 nM
QSG-7701 hepatocytes
  IC50: 47670 ± 80 nM
HepG2 cells [2]
  decrease of HepG2 cell migration compared to control: 77.8%
HepG2 cells [3]
  inhibition of invasiveness compared to control: 76%
PKCα
  pull-down of endogenous PKCα by compound-coupled Sepharose 4B beads: pulled down
PKCδ
  pull-down of endogenous PKCδ by compound-coupled Sepharose 4B beads: pulled down
[4]
  phosphorylated, activated forms of c-Raf, MEK1/2 and ERK1/2: inhibited
[5]
  change in body weight compared to vehicle-treated controls: no significant change
[6]
  antibacterial activity against MRSA: potent antibacterial compound
